From paper PMC12284294 (iScience, 2025) come the findings set out here.

Experiment [1] concerns human polymorphonuclear granulocytes (PMN; neutrophils). Format: cell-based.
Another experiment has as its system FPR1, FPR2, FPR3, PMN. It is filed as cell-based, human.
The next experiment addresses T1, FPR1 (Homo sapiens, UniProt P21462).
T1 construct: expressed in transfected cells; host or cells: HEK293T
T1 sequence (P21462 1-350): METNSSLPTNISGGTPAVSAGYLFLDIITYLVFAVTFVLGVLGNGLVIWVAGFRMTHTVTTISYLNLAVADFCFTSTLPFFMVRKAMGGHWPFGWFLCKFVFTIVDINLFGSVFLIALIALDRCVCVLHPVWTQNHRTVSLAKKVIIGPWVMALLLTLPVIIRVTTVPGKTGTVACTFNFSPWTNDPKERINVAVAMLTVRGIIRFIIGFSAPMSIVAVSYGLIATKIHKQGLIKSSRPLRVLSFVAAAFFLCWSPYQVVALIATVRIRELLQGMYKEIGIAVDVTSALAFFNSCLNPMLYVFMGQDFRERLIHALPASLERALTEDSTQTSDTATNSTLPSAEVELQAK
Format: cell-based.

For the sequence “GCLIGAEYVNNSYEC [Omicron Variant SCoV2_52, 15mer of Omicron spike pool library]”, in experiment [1] (SARS-CoV-2 omicron B.1.1.529 spike pool peptides, 10 µM, PMN, n=6), the “significant PMN activators (group of the spike peptide pool screening)” value is on record as “significant PMN activators”. Moreover, the “neutrophil calcium mobilization in library screening” value in experiment [1] (individual peptides 10 μM, n = 6) is on record as “activator”. Also, the “Match with activator (region): Receptor” value in the experiment on FPR1, FPR2, FPR3, PMN was “PMN + FPR1”. Moreover, on FPR1, the “significant FPR1 activators (group of the spike peptide pool screening)” value is listed as “significant FPR1 activators”. In addition, the “FPR1 calcium activation in library screening” value on FPR1 (individual peptides 10 μM, n = 3) was “activator”.
